Measurements published in PubChem BioAssay (NCI).
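Interpolation was linear, between the two tested concentrations surrounding the appropriate level; five concentrations were tested over 48 hours in 96-well plates. TGI: total growth inhibition.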

Tests used:
Assay in all cases: NCI anticancer screen, dose series, 48 h
HCC-2998 colon = system: HCC-2998 colon
LXFL 529 NSCLC = system: LXFL 529 NSCLC
U251 CNS = system: U251 CNS
SK-OV-3 ovarian = system: SK-OV-3 ovarian
ACHN renal = system: ACHN renal
KM20L2 colon = system: KM20L2 colon
MALME-3M melanoma = system: MALME-3M melanoma
HT29 colon = system: HT29 colon
MCF7 breast = system: MCF7 breast
DU-145 prostate = system: DU-145 prostate

Compound	TGI (HCC-2998 colon) [µM]	TGI (LXFL 529 NSCLC) [µM]	TGI (U251 CNS) [µM]	TGI (SK-OV-3 ovarian) [µM]	TGI (ACHN renal) [µM]	TGI (KM20L2 colon) [µM]	TGI (MALME-3M melanoma) [µM]	TGI (HT29 colon) [µM]	TGI (MCF7 breast) [µM]	TGI (DU-145 prostate) [µM]
CCN(CCCl)CCNc1c2ccccc2nc2ccc(OC)cc12	2.15	1.87	4.78	3.81	1.66	3.45	2.31	2.13	3.55	–
CCCCOC(=O)N[C@H]1CCc2cc(OC)c(OC)c(OC)c2-c2ccc(SC)c(=O)cc21	2.29	29.5	3.87	7.24	13.1	< 0.01	46.6	< 0.0281	26	< 0.01
COc1nc2c(nc(N)n2C2OC(CO)C(O)C(O)C2O)c(=O)n1C (stereo not given)	> 100	> 100	> 100	> 100	> 100	> 100	> 100	> 100	–	–
CC(C)(C)c1ccccc1NS(=O)(=O)c1ccccc1	> 100	> 100	> 100	> 100	> 100	> 100	> 100	> 100	–	–
O=C1/C(=C/c2ccc(O)cc2)CCC1CNc1ccc(Cl)cc1 (stereo not given)	14.8	2.39	21.3	20.9	11.6	14.2	8.57	14.9	6.82	26.2
CCOc1ccc(NC(=O)C2=C(C)NC(C)=C(C(=O)Nc3ccc(OCC)cc3)C2c2ccc([N+](=O)[O-])cc2)cc1	52.7	> 100	> 100	> 100	87.4	56.3	> 100	86	–	–
O=C(CC1C(=O)Nc2ccccc2S1=O)Nc1cccc(Cl)c1 (stereo not given)	> 100	> 100	> 100	> 100	> 100	> 100	> 84.4	> 55.1	29.9	> 100
O=C1C(c2ccccc2)=C(c2ccccc2)C(c2ccccc2)/C1=C1\C(=O)C(c2ccccc2)=C(c2ccccc2)C1c1ccccc1 (stereo not given)	> 100	> 100	> 100	> 100	> 100	> 100	> 100	> 100	–	–
CC(C)(C)c1cc(C(O)(C(F)(F)F)C(F)(F)F)c2c(c1)C(C(F)(F)F)(C(F)(F)F)OC(c1ccccc1)(C(C)(C)C)N2 (stereo not given)	21.1	12.5	10.4	7.39	14	21	27.6	14.4	–	–
CC(=O)O[C@H]1CC[C@@]2(C)C(=CC[C@@H]3C2CC[C@]2(C)Nc4oncc4CC32)C1 (stereo not given in full)	> 100	26.5	> 100	> 100	72.4	> 100	82.2	> 100	–	–
Cc1ccc(S(=O)(=O)N2CCCCC2CCO)cc1 (stereo not given)	> 100	> 100	> 100	> 100	> 100	> 100	> 100	> 100	–	–
